Data taken from patent US9376420B2 (YUHAN CORPORATION, priority 2012, dated 2016).
pEC50: −log10 of the molar value.

Target: T1, human LXRβ (Homo sapiens, UniProt P55055)
T1 construct: expressed in transfected cells; host or cells: HEK293 cells (ATCC CRL-1573), transient transfection with pFA-hLXRβ/GAL4 and pUAS
T1 sequence (P55055 222-460 limits assumed): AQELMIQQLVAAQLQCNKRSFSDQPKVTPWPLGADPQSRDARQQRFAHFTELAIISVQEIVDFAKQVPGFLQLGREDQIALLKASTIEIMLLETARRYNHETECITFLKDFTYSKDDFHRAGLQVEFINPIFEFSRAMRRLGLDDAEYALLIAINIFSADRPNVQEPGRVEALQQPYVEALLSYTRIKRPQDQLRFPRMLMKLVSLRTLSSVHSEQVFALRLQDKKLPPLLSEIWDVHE
Assay: Assay for Transcriptional Activity of LXRβ (GAL4-hLXRβ LBD luciferase reporter, transient transfection)
Format: cell-based
Settings: HEK293 cells transfected with pFA-hLXRβ/GAL4 and pUAS, 24 hours; for Emax: fold value in comparison with the control (DMSO-treated group); for pEC50: increase of transcriptional activity of LXRβ, average of three independent tests
Procedure, shortened: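 HEK293 cells transiently co-transfected with GAL4-hLXRβ LBD and 5×GAL4-UAS luciferase reporter, treated 24 h at 37 °C with compounds over 9 points (0.01–50 μM, half-log). Luminescence read after lysis; EC50 from four-parameter fit, mean of three independent tests, with a known LXR agonist as positive control.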

SMILES | Emax | pEC50
CS(=O)(=O)c1ccc(-c2ccnc(C3CC(C(F)(F)C(F)(F)F)=NN3c3ccc(F)cc3F)c2)cn1 (stereo not drawn) [Example 178, 1-(2,4-difluoro-phenyl)-5-[4-(6-methanesulfonyl-pyridin-3-yl)-pyridin-2-yl]-3-pentafluoroethyl-4,5-dihydro-1H-pyrazole] | 82 fold | 6.27
CS(=O)(=O)N1CC=C(c2ccnc(C3CC(C(F)(F)C(F)(F)F)=NN3c3ccc(F)cc3F)c2)CC1 (stereo not drawn) [Example 180, 1-(2,4-difluoro-phenyl)-5-[4-(1-methanesulfonyl-1,2,3,6-tetrahydropyridin-4-yl)-pyridin-2-yl]-3-pentafluoroethyl-4,5-dihydro-1H-pyrazole] | 118 fold | 6.29
CS(=O)(=O)N1CCN(c2ccnc(C3CC(C(F)(F)C(F)(F)F)=NN3c3ccc(F)cc3F)c2)CC1 (stereo not drawn) [Example 183, 1-(2,4-difluoro-phenyl)-5-[4-(4-methanesulfonyl-piperazin-1-yl)-pyridin-2-yl]-3-pentafluoroethyl-4,5-dihydro-1H-pyrazole] | 79 fold | 5.48
O=S(=O)(C1CC1)N1CCN(c2ccnc(C3CC(C(F)(F)C(F)(F)F)=NN3c3ccc(F)cc3F)c2)CC1 (stereo not drawn) [Example 184, 1-(2,4-difluoro-phenyl)-5-[4-(4-cyclopropanesulfonyl-piperazin-1-yl)-pyridin-2-yl]-3-pentafluoroethyl-4,5-dihydro-1H-pyrazole] | 81 fold | 5.55
CS(=O)(=O)c1cccc(-c2cc(C3CC(C(F)(F)C(F)(F)F)=NN3c3ccc(F)cc3F)ccn2)c1 (stereo not drawn) [Example 188, 1-(2,4-difluoro-phenyl)-5-[2-(3-methanesulfonyl-phenyl)-pyridin-4-yl]-3-pentafluoroethyl-4,5-dihydro-1H-pyrazole] | 107 fold | 6.52
CS(=O)(=O)c1ccc(-c2cc(C3CC(C(F)(F)C(F)(F)F)=NN3c3ccc(F)cc3F)ccn2)cn1 (stereo not drawn) [Example 189, 1-(2,4-difluoro-phenyl)-5-[2-(6-methanesulfonyl-pyridin-3-yl)-pyridin-4-yl]-3-pentafluoroethyl-4,5-dihydro-1H-pyrazole] | 56 fold | 5.57
CS(=O)(=O)N1CC=C(c2cc(C3CC(C(F)(F)C(F)(F)F)=NN3c3ccc(F)cc3F)ccn2)CC1 (stereo not drawn) [Example 191, 1-(2,4-difluoro-phenyl)-5-[2-(1-methanesulfonyl-1,2,3,6-tetrahydropyridin-4-yl)-pyridin-4-yl]-3-pentafluoroethyl-4,5-dihydro-1H-pyrazole] | 50 fold | 5.17
CS(=O)(=O)N1CCN(c2cc(C3CC(C(F)(F)C(F)(F)F)=NN3c3ccc(F)cc3F)ccn2)CC1 (stereo not drawn) [Example 194, 1-(2,4-difluoro-phenyl)-5-[2-(4-methanesulfonyl-piperazin-1-yl)-pyridin-4-yl]-3-pentafluoroethyl-4,5-dihydro-1H-pyrazole] | 95 fold | 5.44
CS(=O)(=O)c1cccc(-c2cccc(N3N=C(C(F)(F)C(F)(F)F)CC3c3ccc(F)cc3F)c2)c1 (stereo not drawn) [Example 206, 5-(2,4-difluoro-phenyl)-1-[3′-(methylsulfonyl)-biphenyl-3-yl]-3-pentafluoroethyl-4,5-dihydro-1H-pyrazole] | 87 fold | 5.85
CS(=O)(=O)c1cncc(-c2cccc(N3N=C(C(F)(F)C(F)(F)F)CC3c3ccc(F)cc3F)c2)c1 (stereo not drawn) [Example 207, 5-(2,4-difluoro-phenyl)-1-[3-(5-methanesulfonyl-pyridin-3-yl)-phenyl]-3-pentafluoroethyl-4,5-dihydro-1H-pyrazole] | 16 fold | 5.21
CS(=O)(=O)c1cccc(-c2cccc(N3N=C(C(F)(F)C(F)(F)F)CC3c3ccc(F)cc3F)c2)n1 (stereo not drawn) [Example 208, 5-(2,4-difluoro-phenyl)-1-[3-(6-methanesulfonyl-pyridin-2-yl)-phenyl]-3-pentafluoroethyl-4,5-dihydro-1H-pyrazole] | 22 fold | 5.22
CN(C)S(=O)(=O)c1cccc(-c2cccc(N3N=C(C(F)(F)C(F)(F)F)CC3c3ccc(F)cc3F)c2)n1 (stereo not drawn) [Example 209, 5-(2,4-difluoro-phenyl)-1-[3-(6-dimethylsulfamoyl-pyridin-2-yl)-phenyl]-3-pentafluoroethyl-4,5-dihydro-1H-pyrazole] | 20 fold | 5.29
CN(CCO)S(=O)(=O)c1cccc(-c2cccc(N3N=C(C(F)(F)C(F)(F)F)CC3c3ccc(F)cc3F)c2)c1 (stereo not drawn) [Example 210, 5-(2,4-difluoro-phenyl)-1-{3′-[(2-hydroxy-ethyl)-methyl-sulfamoyl]-biphenyl-3-yl}-3-pentafluoroethyl-4,5-dihydro-1H-pyrazole] | 25 fold | 5.35
CN(CCCS(=O)(=O)c1cccc(-c2cccc(N3N=C(C(F)(F)C(F)(F)F)CC3c3ccc(F)cc3F)c2)c1)C(=O)OC(C)(C)C (stereo not drawn) [Example 211, 5-(2,4-difluoro-phenyl)-1-{3′-[3-(N-BOC-N-methyl-amino)-propane-1-sulfonyl]-biphenyl-3-yl}-3-pentafluoroethyl-4,5-dihydro-1H-pyrazole] | 29 fold | 6.29
CNCCCS(=O)(=O)c1cccc(-c2cccc(N3N=C(C(F)(F)C(F)(F)F)CC3c3ccc(F)cc3F)c2)c1.Cl (stereo not drawn) [Example 212, 5-(2,4-difluoro-phenyl)-1-[3′-(3-methylamino-propane-1-sulfonyl)-biphenyl-3-yl]-3-pentafluoroethyl-4,5-dihydro-1H-pyrazole hydrochloride] | 9 fold | 5.79
CC(C)(C)OC(=O)N1CC=C(c2cccc(C3CC(C(O)(C(F)(F)F)C(F)(F)F)=NN3c3ccccc3Cl)c2)CC1 (stereo not drawn) [Example 229, 1-(2-chloro-phenyl)-5-[3-(1-BOC-1,2,3,6-tetrahydropyridin-4-yl)-phenyl]-3-[di-(trifluoromethyl)-hydroxy-methyl]-4,5-dihydro-1H-pyrazole] | 126 fold | 7.12
O=C(O)C(F)(F)F.OC(C1=NN(c2ccccc2Cl)C(c2cccc(C3=CCNCC3)c2)C1)(C(F)(F)F)C(F)(F)F (stereo not drawn) [Example 230, 1-(2-chloro-phenyl)-5-[3-(1,2,3,6-tetrahydropyridin-4-yl)-phenyl]-3-[di-(trifluoromethyl)-hydroxy-methyl]-4,5-dihydro-1H-pyrazole trifluoroacetate] | 137 fold | 7.44
CC(=O)N1CC=C(c2cccc(C3CC(C(O)(C(F)(F)F)C(F)(F)F)=NN3c3ccccc3Cl)c2)CC1 (stereo not drawn) [Example 231, 5-[3-(1-acetyl-1,2,3,6-tetrahydropyridin-4-yl)-phenyl]-1-(2-chloro-phenyl)-3-[di-(trifluoromethyl)-hydroxy-methyl]-4,5-dihydro-1H-pyrazole] | 107 fold | 8.10
O=C(CC1CCCC1)N1CC=C(c2cccc(C3CC(C(O)(C(F)(F)F)C(F)(F)F)=NN3c3ccccc3Cl)c2)CC1 (stereo not drawn) [Example 232, 1-(2-chloro-phenyl)-5-{3-[1-(2-cyclopentyl-acetyl)-1,2,3,6-tetrahydropyridin-4-yl]-phenyl}-3-[di-(trifluoromethyl)-hydroxy-methyl]-4,5-dihydro-1H-pyrazole] | 77 fold | 7.15
O=C(CCC1CCCC1)N1CC=C(c2cccc(C3CC(C(O)(C(F)(F)F)C(F)(F)F)=NN3c3ccccc3Cl)c2)CC1 (stereo not drawn) [Example 233, 1-(2-chloro-phenyl)-5-{3-[1-(3-cyclopentyl-propionyl)-1,2,3,6-tetrahydropyridin-4-yl]-phenyl}-3-[di-(trifluoromethyl)-hydroxy-methyl]-4,5-dihydro-1H-pyrazole] | 72 fold | 7.68
O=C(c1cccs1)N1CC=C(c2cccc(C3CC(C(O)(C(F)(F)F)C(F)(F)F)=NN3c3ccccc3Cl)c2)CC1 (stereo not drawn) [Example 234, 1-(2-chloro-phenyl)-5-{3-[1-(thiophene-2-carbonyl)-1,2,3,6-tetrahydropyridin-4-yl]-phenyl}-3-[di-(trifluoromethyl)-hydroxy-methyl]-4,5-dihydro-1H-pyrazole] | 49 fold | 7.89
O=C(c1ccccc1)N1CC=C(c2cccc(C3CC(C(O)(C(F)(F)F)C(F)(F)F)=NN3c3ccccc3Cl)c2)CC1 (stereo not drawn) [Example 235, 5-[3-(1-benzoyl-1,2,3,6-tetrahydropyridin-4-yl)-phenyl]-1-(2-chloro-phenyl)-3-[di-(trifluoromethyl)-hydroxy-methyl]-4,5-dihydro-1H-pyrazole] | 63 fold | 7.51
O=C(Cc1ccccc1)N1CC=C(c2cccc(C3CC(C(O)(C(F)(F)F)C(F)(F)F)=NN3c3ccccc3Cl)c2)CC1 (stereo not drawn) [Example 236, 1-(2-chloro-phenyl)-5-[3-(1-phenylacetyl-1,2,3,6-tetrahydropyridin-4-yl)-phenyl]-3-[di-(trifluoromethyl)-hydroxy-methyl]-4,5-dihydro-1H-pyrazole] | 71 fold | 7.31
O=C(c1ccc(Cl)cc1)N1CC=C(c2cccc(C3CC(C(O)(C(F)(F)F)C(F)(F)F)=NN3c3ccccc3Cl)c2)CC1 (stereo not drawn) [Example 237, 5-{3-[1-(4-chloro-benzoyl)-1,2,3,6-tetrahydropyridin-4-yl]-phenyl}-1-(2-chloro-phenyl)-3-[di-(trifluoromethyl)-hydroxy-methyl]-4,5-dihydro-1H-pyrazole] | 81 fold | 6.92
